Data on 25 compounds can be found in patent US9926319B2, “Pyridyl piperidines” (MERCK PATENT GMBH, priority 2014, dated 2018).

One data set deals with Wnt pathway. Put plainly: Cellular assay for Wnt pathway activity (luciferase reporter cell based assay). The note with it: 24 h, HEK293 luciferase reporter cell line (ER-DSH, TCF dependent promoter), induced with estrogen (1 μM), read-out: 7df3 IC50.
Data set [1] in a line: CLint (intrinsic clearance) assay, microsomal incubation. The data set is classed as in vitro ADME, Human. The note with it: NADPH, 37° C., up to 30 min; for microsomal CLint at 0.8 μM: human, liver microsomes, pH 7.4, human liver microsomes 0.5 mg/mL protein; for Human Clint: human liver microsomes 0.5 mg/mL protein. On the procedure: 2. CLint (Intrinsic Clearance) Assay
A Tecan Genesis workstation (RWS ASY 150/8) was used to perform the microsomal incubations. Analysis was carried out using a Waters ACQUITY UPLC system coupled to an ABSciex API3000 mass spectrometer. Data analysis was performed using Assay Explorer (Symyx).
0.1 M potassium phosphate buffer pH 7.4 containing 1 mM MgCl2
15 mM NADPH in phosphate buffer
5.0 mg protein/mL liver microsomes in phosphate buffer
Each experiment consists of 12 test and 2 reference compounds. The reference compounds are incubated as a cocktail.
Dilution of test compounds was done in 2 steps from a 10 mM DMSO stock solution. First 4 μL stock solution was added to 196 μL of 20% DMSO in potassium phosphate buffer pH 7.4. In a second step 10 μL of the first dilution were added to […] potassium phosphate buffer and 100 μL internal standard solution to a final concentration of 0.8 μM. 100 μL of the final compound dilution were aliquoted into a 96 deep well plate. 12.5 μL liver microsomes were added to each well (0.5 mg/mL final protein concentration) and the samples preincubated for 5 min at 37° C. and 800 rpm agitation.
After the preincubation, 250 μL cold acetonitrile were added to the 0 min samples to prevent a reaction. Following this, 12.5 μL NADPH solution were added to all wells to start the incubation, with the exception of the 0 min and 30 min controls without cofactor, where the NADPH was substituted for phosphate buffer.
The incubations were stopped after 5, 10, 20 and 30 min by adding 250 μL cold acetonitrile to the individual wells.
The quenched samples were then centrifuged at 4000 g for 1 h at 4° C. 100 μL of the supernatant were transferred into 96 well plates for analysis.
The metabolic stability of each compound was determined by measurement of the change in LC-MS/MS peak area over time. Assay Explorer software was used to automatically calculate the slope k of the decline. The intrinsic clearance (CLint) of each compound was then calculated according to the formula: CLint(μL/min/mg protein)=k1000/protein concentration.
CLint is shown for each compound in Table 3 below.

In the case of `O=C1NCCC12CCN(c1c(Cl)cncc1-c1ccc(-c3cnn([C@H]4CCC[C@@H]4O)c3)cc1)CC2` (racemic) [Example 56, 8-(3-Chloro-5-{4-[1-((1S,2S)-2-hydroxy-cyclopentyl)-1H-pyrazol-4-yl]-phenyl}-pyridin-4-yl)-2,8-diaza-spiro[4.5]decan-1-one], the concentration for half-maximal inhibition (IC50) in the data set with Wnt pathway was determined as 7.6 nM. Also, the intrinsic clearance (microsomal CLint) at 0.8 μM in data set [1] came out at 44 µL/min/mg.

`O=C1NCC2(CCN(c3c(Cl)cncc3-c3ccc(-c4cnn([C@H]5CCC[C@@H]5O)c4)cc3)CC2)O1` (racemic) [Example 57, 8-(3-Chloro-5-{4-[1-((1S,2S)-2-hydroxy-cyclopentyl)-1H-pyrazol-4-yl]-phenyl}-pyridin-4-yl)-1-oxa-3,8-diaza-spiro[4.5]decan-2-one]: the IC50 in the data set on Wnt pathway was found to be 18 nM. Moreover, in data set [1], the microsomal CLint at 0.8 μM was 32 µL/min/mg.

For `CC1NC(=O)OC12CCN(c1c(Cl)cncc1-c1ccc3c(c1)CS(=O)(=O)N3C)CC2` (racemic) [Example 96, 8-[3-Chloro-5-(1-methyl-2,2-dioxo-2,3-dihydro-1H-2l6-benzo[c]isothiazol-5-yl)-pyridin-4-yl]-4-methyl-1-oxa-3,8-diaza-spiro[4.5]decan-2-one], the half-maximal inhibitory concentration (IC50) in the data set with Wnt pathway stood at 4.2 nM. In data set [1], the microsomal CLint at 0.8 μM is 39 µL/min/mg.

On to `CC1NC(=O)OC12CCN(c1c(Cl)cncc1-c1ccc(-c3cnn(C)c3)cc1)CC2` (racemic) [Example 97, 8-{3-Chloro-5-[4-(1-methyl-1H-pyrazol-4-yl)-phenyl]-pyridin-4-yl}-4-methyl-1-oxa-3,8-diaza-spiro[4.5]decan-2-one], for which, in the data set with Wnt pathway, the IC50 was 42 nM. The microsomal CLint at 0.8 μM in data set [1] came to 26 µL/min/mg.

`Cn1ncc2cc(-c3cncc(Cl)c3N3CCC4(CC3)CC(=O)NC4=O)ccc21` [Example 1, 8-[3-Chloro-5-(1-methyl-1H-indazol-5-yl)-pyridin-4-yl]-2,8-diaza-spiro[4.5]decane-1,3-dione]: the IC50 with Wnt pathway is 3.4 nM. For the same compound, in data set [1], the intrinsic metabolic clearance (microsomal CLint) at 0.8 μM was 11 µL/min/mg.

For the compound `Cn1ncc2cc(-c3cncc(Cl)c3N3CCC4(CC3)NC(=O)NC4=O)ccc21` [Example 2, 8-[3-Chloro-5-(1-methyl-1H-indazol-5-yl)-pyridin-4-yl]-1,3,8-triaza-spiro[4.5]decane-2,4-dione], in the data set with Wnt pathway, the IC50 came to 46 nM. In addition, the intrinsic metabolic clearance (microsomal CLint) at 0.8 μM in data set [1] was found to be 15 µL/min/mg.

As to `O=C1NCCC12CCN(c1c(Cl)cncc1-c1ccc(-c3cnn(CCO)c3)cc1)CC2` [Example 5, 8-(3-Chloro-5-{4-[1-(2-hydroxy-ethyl)-1H-pyrazol-4-yl]-phenyl}-pyridin-4-yl)-2,8-diaza-spiro[4.5]decan-1-one], in data set [1], the “Human Clint” value amounted to 40 µL/min/mg.

For the compound `Nc1n[nH]c2cc(-c3cncc(Cl)c3N3CCC4(CCNC4=O)CC3)ccc12` [Example 7, 8-[3-(3-Amino-1H-indazol-6-yl)-5-chloro-pyridin-4-yl]-2,8-diaza-spiro[4.5]decan-1-one], in data set [1], the “Human Clint” value was found to be 27 µL/min/mg.

For `Cn1cc(-c2ccc(-c3cncc(Cl)c3N3CCC4(CC3)CNC(=O)O4)cc2)cn1` [Example 9, 8-{3-Chloro-5-[4-(1-methyl-1H-pyrazol-4-yl)-phenyl]-pyridin-4-yl}-1-oxa-3,8-diaza-spiro[4.5]decan-2-one], the “Human Clint” value in data set [1] was 40 µL/min/mg.

Turning to `Cn1cc(-c2ccc(-c3cncc(Cl)c3N3CCC4(CC3)NC(=O)NC4=O)cc2)cn1` [Example 13, 8-{3-Chloro-5-[4-(1-methyl-1H-pyrazol-4-yl)-phenyl]-pyridin-4-yl}-1,3,8-triaza-spiro[4.5]decane-2,4-dione], the intrinsic clearance (microsomal CLint) at 0.8 μM in data set [1] was less than 10 µL/min/mg.

Consider `Cc1nc(-c2ccc(-c3cncc(Cl)c3N3CCC4(CCNC4=O)CC3)cc2)cn1C` [Example 18, 8-{3-Chloro-5-[4-(1,2-dimethyl-1H-imidazol-4-yl)-phenyl]-pyridin-4-yl}-2,8-diaza-spiro[4.5]decan-1-one], for which the “Human Clint” value in data set [1] is 13 µL/min/mg.

With `Cn1nc(N)c2ccc(-c3cncc(Cl)c3N3CCC4(CCNC4=O)CC3)cc21` [Example 24, 8-[3-(3-Amino-1-methyl-1H-indazol-6-yl)-5-chloro-pyridin-4-yl]-2,8-diaza-spiro[4.5]decan-1-one], the “Human Clint” value in data set [1] was determined as 78 µL/min/mg.

For the compound `CNc1n[nH]c2cc(-c3cncc(Cl)c3N3CCC4(CCNC4=O)CC3)ccc12` [Example 34, 8-[3-Chloro-5-(3-methylamino-1H-indazol-6-yl)-pyridin-4-yl]-2,8-diaza-spiro[4.5]decan-1-one], the “Human Clint” value in data set [1] is 52 µL/min/mg.

As to `Cn1cc(-c2ccc(-c3cncc(C(F)(F)F)c3N3CCC4(CC3)CNC(=O)O4)cc2)cn1` [Example 35, 8-{3-[4-(1-Methyl-1H-pyrazol-4-yl)-phenyl]-5-trifluoromethyl-pyridin-4-yl}-1-oxa-3,8-diaza-spiro[4.5]decan-2-one], the microsomal CLint at 0.8 μM in data set [1] was less than 10 µL/min/mg.

With `CN1c2ccc(-c3cncc(Cl)c3N3CCC4(CC3)NC(=O)NC4=O)cc2CS1(=O)=O` [Example 37, 8-[3-Chloro-5-(1-methyl-2,2-dioxo-2,3-dihydro-1H-2l6-benzo[c]isothiazol-5-yl)-pyridin-4-yl]-1,3,8-triaza-spiro[4.5]decane-2,4-dione], in data set [1], the “Human Clint” value is 11 µL/min/mg.

Consider `CC1=NNC(=O)C12CCN(c1c(Cl)cncc1-c1ccc3c(c1)CS(=O)(=O)N3C)CC2` [Example 41, 8-[3-Chloro-5-(1-methyl-2,2-dioxo-2,3-dihydro-1H-2l6-benzo[c]isothiazol-5-yl)-pyridin-4-yl]-4-methyl-2,3,8-triaza-spiro[4.5]dec-3-en-1-one], for which the “Human Clint” value in data set [1] was found to be 85 µL/min/mg.

With `Cn1cc(-c2ccc(-c3cncc(C(F)(F)F)c3N3CCC4(CCNC4=O)CC3)cc2)cn1` [Example 45, 8-{3-[4-(1-Methyl-1H-pyrazol-4-yl)-phenyl]-5-trifluoromethyl-pyridin-4-yl}-2,8-diaza-spiro[4.5]decan-1-one], the “Human Clint” value in data set [1] turned out to be 81 µL/min/mg.

In the case of `CC1=NC2(CCN(c3c(Cl)cncc3-c3ccc4c(c3)CS(=O)(=O)N4C)CC2)C(=O)N1` [Example 46, 8-[3-Chloro-5-(1-methyl-2,2-dioxo-2,3-dihydro-1H-2l6-benzo[c]isothiazol-5-yl)-pyridin-4-yl]-2-methyl-1,3,8-triaza-spiro[4.5]dec-1-en-4-one], the “Human Clint” value in data set [1] amounted to 16 µL/min/mg.

`CC(C)(O)Cn1cc(-c2ccc(-c3cncc(Cl)c3N3CCC4(CCNC4=O)CC3)cc2)cn1` [Example 47, 8-(3-Chloro-5-{4-[1-(2-hydroxy-2-methyl-propyl)-1H-pyrazol-4-yl]-phenyl}-pyridin-4-yl)-2,8-diaza-spiro[4.5]decan-1-one]: the “Human Clint” value in data set [1] is 23 µL/min/mg.

For the compound `CN1C(=O)NC(=O)C12CCN(c1c(Cl)cncc1-c1ccc(-c3cnn(C)c3)cc1)CC2` [Example 49, 8-{3-Chloro-5-[4-(1-methyl-1H-pyrazol-4-yl)-phenyl]-pyridin-4-yl}-1-methyl-1,3,8-triaza-spiro[4.5]decane-2,4-dione], the “Human Clint” value in data set [1] was 20 µL/min/mg.

`CN1c2ccc(-c3cncc(Cl)c3N3CCC4(CC3)C(=O)NN=C4C(F)(F)F)cc2CS1(=O)=O` [Example 58, 8-[3-Chloro-5-(1-methyl-2,2-dioxo-2,3-dihydro-1H-2l6-benzo[c]isothiazol-5-yl)-pyridin-4-yl]-4-trifluoromethyl-2,3,8-triaza-spiro[4.5]dec-3-en-1-one]: the “Human Clint” value in data set [1] turned out to be 89 µL/min/mg.

`Cn1ccc(-c2ccc(-c3cncc(Cl)c3N3CCC4(CCNC4=O)CC3)cc2)n1` [Example 67, 8-{3-Chloro-5-[4-(1-methyl-1H-pyrazol-3-yl)-phenyl]-pyridin-4-yl}-2,8-diaza-spiro[4.5]decan-1-one]: the IC50 in the data set on Wnt pathway is 41 nM.

Take `CN1c2ccc(-c3cncc(F)c3N3CCC4(CC3)CNC(=O)O4)cc2CS1(=O)=O` [Example 80, 8-[3-Fluoro-5-(1-methyl-2,2-dioxo-2,3-dihydro-1H-2l6-benzo[c]isothiazol-5-yl)-pyridin-4-yl]-1-oxa-3,8-diaza-spiro[4.5]decan-2-one]: the “Human Clint” value in data set [1] was 18 µL/min/mg.

For `Cn1cc(-c2ccc(-c3cncc(Cl)c3N3CCC4(CC3)CC(=O)NC4=O)cc2)cn1` [Example 86, 8-{3-Chloro-5-[4-(1-methyl-1H-pyrazol-4-yl)-phenyl]-pyridin-4-yl}-2,8-diaza-spiro[4.5]decane-1,3-dione], the IC50 in the data set with Wnt pathway was 2.2 nM.

As for `Cn1ncc2cc(-c3cncc(Cl)c3N3CCC4(CCNC4=O)CC3)ccc21` [Example 91, 8-[3-Chloro-5-(1-methyl-1H-indazol-5-yl)-pyridin-4-yl]-2,8-diaza-spiro[4.5]decan-1-one], the IC50 with Wnt pathway is 8.2 nM.
